Read-outs that look alike come from different tables or passages of the source.
Legend:
[1] = tested on: Friend Lenkemia Virus (FLV); experiment: Anti-Friend Leukemia Virus plaque inhibition in FG-10 cells; format: cell-based
Procedure: FG-10 cells were seeded on a plate one day before they were infected with FLV. One hour after infecting, known concentrations of the test compounds or combinations were added. The plates were incubated for 3 days, the media replaced with fresh McCoy's 5A media and incubated another 3 days. […]

[2] = tested on: E. coli CN314; experiment: MIC determination of each drug alone; format: cell-based; settings: Escherichia coli
Procedure: Microtiter dilutions were prepared using Wellcotest broth. Prior to synergy testing, MIC determinations were made for each compound individually against the test organism (E. coli CN314).

[3] = tested on: HIV; experiment: HIV p24 antigen by radioimmunoassay in HIV-infected PBMC cultures; format: cell-based; settings: Experiment 4, Day 14
[4] = tested on: HIV; experiment: Virus yield of HIV-infected PBMC cultures; format: cell-based; settings: Experiment 3, Day 13; AZT .04 µM alone
[5] = tested on: vaccinia, HSVI and varicella zoster virus (VZV); settings: De Clerq et al, Biochem.Pharm. (1980) 29, 1849-1851; including DNA viruses; cited from earlier work
[6] = tested on: HIV; experiment: AZT/acyclovir combination, in vitro efficacy (protection) vs. HIV; format: cell-based
Procedure: Using a method analogous to that described in Example 79 of EP21758A, combinations of AZT and acyclovir (ACV) were tested for in vitro efficacy vs. HIV.

[7] = tested on: HIV; experiment: Reverse transcriptase activity in supernatant of HIV-infected PBMC, with multiple drug effect analysis; format: cell-based; settings: for mean reverse transcriptase values: Experiment 2, Day 10
[8] = test drugs alone, E. coli CN314, read-out: MIC

SMILES: COc1cc(C(=O)OCCCN2CCCN(CCCOC(=O)c3cc(OC)c(OC)c(OC)c3)CC2)cc(OC)c1OC [dilazep]
- antiviral effect ([1]; dilazep alone, 5 µM): Neither dipyridamole (10 µM) nor dilazep (5 µM) alone had any observed antiviral effect

SMILES: OCCN(CCO)c1nc(N2CCCCC2)c2nc(N(CCO)CCO)nc(N3CCCCC3)c2n1 [dipyridamole]
- antiviral effect ([1]; dipyridamole alone, 10 µM): Neither dipyridamole (10 µM) nor dilazep (5 µM) alone had any observed antiviral effect

SMILES: NC[C@H]1O[C@H](O[C@H]2[C@H](O)[C@@H](O[C@H]3O[C@H](CO)[C@@H](O)[C@H](N)[C@H]3O)[C@H](N)C[C@@H]2N)[C@H](N)C[C@@H]1O [Tobramycin]
- MIC [2, 8]: 0.4 µg/mL

SMILES: CCC[C@@H]1C[C@@H](C(=O)N[C@@H]([C@H]2O[C@H](SC)[C@H](O)[C@@H](O)[C@H]2O)[C@H](C)Cl)N(C)C1 [Clindamycin]
- MIC [2, 8]: 100 µg/mL

SMILES: COc1cc(Cc2cnc(N)nc2N)cc(OC)c1OC [Trimethoprim, 2,4-diamino-5-(3',4',5'-trimethoxybenzyl) pyrimidine]
- MIC ([2]; CN314): 0.125 µg/mL

SMILES: O=C(N[C@H](CO)[C@H](O)c1ccc([N+](=O)[O-])cc1)C(Cl)Cl [Chloramphenicol]
- MIC [2, 8]: 3.1 µg/mL

SMILES: Cc1cn([C@H]2C[C@H](N=[N+]=[N-])[C@@H](CO)O2)c(=O)[nH]c1=O [AZT]
- HIV p24 ([3]; AZT 0.02 µM alone): 100-200 ng protein/ml
- HIV p24 ([3]; AZT 0.04 µM alone): 25-30 ng protein/ml
- HIV p24 ([3]; AZT 0.08 µM alone): 11.2 ng protein/ml
- virus yield [4]: 10^3 TCID50 /ml
- activity against viruses [5]: no appreciable activity
- protection ([6]; AZT alone at 8µM): 100%
- AZT ([6]; Table 3: AZT concentration with ACV 0 µg/ml, effect level not stated (presumably full protection)): 8 µM
- EC50 ([1]; read-out: Azidothymidine ED50): 5 nM
- MIC [2, 8]: 1 µg/mL
- mean reverse transcriptase values ([7]; AZT 0.01 µM alone): 159 cpm/10^6 cells x 10^3
- mean reverse transcriptase values ([7]; AZT 0.02 µM alone): 110 cpm/10^6 cells x 10^3
- mean reverse transcriptase values ([7]; AZT 0.04 µM alone): 71 cpm/10^6 cells x 10^3
- mean reverse transcriptase values ([7]; AZT 0.08 µM alone): 31 cpm/10^6 cells x 10^3
- mean reverse transcriptase values ([7]; AZT 0.16 µM alone): 7 cpm/10^6 cells x 10^3
- mean RT values ([7]; Experiment 3, Day 13, AZT 0.02 µM alone): 51 cpm/10^6 cells x 10^3
- mean RT values ([7]; Experiment 3, Day 13, AZT 0.04 µM alone): 10 cpm/10^6 cells x 10^3
- mean RT values ([7]; Experiment 3, Day 13, AZT 0.08 µM alone): 2 cpm/10^6 cells x 10^3
- mean RT values ([7]; Experiment 3, Day 13, AZT 0.16 µM alone): 5 cpm/10^6 cells x 10^3
- mean RT values ([7]; Experiment 4, Day 11, AZT 0.02 µM alone): 8 cpm/10^6 cells x 10^3
- mean RT values ([7]; Experiment 4, Day 11, AZT 0.04 µM alone): 4 cpm/10^6 cells x 10^3
- mean RT values ([7]; Experiment 4, Day 11, AZT 0.08 µM alone): 1 cpm/10^6 cells x 10^3
- inhibition of viral replication ([7]; experiment 1, all concentrations of AZT (3.2 µM and 5 twofold dilutions)): fully inhibitory

SMILES: CO[C@H]1/C=C/O[C@@]2(C)Oc3c(C)c(O)c4c(O)c(c(/C=N/N5CCN(C)CC5)c(O)c4c3C2=O)NC(=O)/C(C)=C\C=C\[C@H](C)[C@H](O)[C@@H](C)[C@@H](O)[C@@H](C)[C@H](OC(C)=O)[C@@H]1C [Rifampicin]
- MIC [2, 8]: 6.2 µg/mL

SMILES: Nc1nc2c(ncn2COCCO)c(=O)[nH]1 [ACV, 9-(2-hydroxyethoxymethyl) guanine, reference compound]
- protection ([6]; ACV alone, 16 µg/ml (the highest tested)): less than 30%
- potentiates the antiviral activity of AZT ([6]; ACV combined with AZT vs. HIV): about 3 fold

SMILES: CC(=O)O[C@H]1C[C@@]2(C)[C@@H](C[C@@H](O)[C@H]3[C@@]4(C)CC[C@@H](O)[C@@H](C)[C@@H]4CC[C@@]32C)/C1=C(\CCC=C(C)C)C(=O)O [Fusidic acid]
- MIC [2, 8]: 1000 µg/mL

SMILES: CC[C@H]1OC(=O)[C@H](C)[C@@H](O[C@H]2C[C@@](C)(OC)[C@@H](O)[C@H](C)O2)[C@H](C)[C@@H](O[C@@H]2O[C@H](C)C[C@H](N(C)C)[C@H]2O)[C@](C)(O)C[C@@H](C)C(=O)[C@H](C)[C@@H](O)[C@]1(C)O [Erthromycin]
- MIC [2, 8]: 25 µg/mL

SMILES: Cc1cc(C)nc(NS(=O)(=O)c2ccc(N)cc2)n1 [Sulphadimidine]
- MIC [2, 8]: 32 µg/mL

Reference: EP0594223B1, “Combination of therapeutic nucleosides and further therapeutic agents” (THE WELLCOME FOUNDATION LIMITED, priority 1985, dated 1987)
